The conditions of this data set: Crystal; DTA.

± gives the expanded uncertainty stated by the source.

With `[Sn]` [tin], the Normal melting temperature was 231.90 ± 2 °C.

(Values after the NIST ThermoML archive (doi:10.1016/j.tca.2017.05.009).)
